Laboratory results reported in patent US11319300B2, “Polyfluoro-substituted aromatic heterocyclic derivative, pharmaceutical composition containing same, and applications thereof” (ZHEJIANG UNIVERSITY, priority 2017, dated 2022).

Tests used:
hERG potassium channel = molecular target: T1, hERG potassium channel (Homo sapiens, UniProt Q12809); test: hERG potassium channel inhibition, manual whole-cell patch clamp in CHO hERG cells; type: cell-based; conditions: 3 μM, CHO hERG cells, patch clamp
T1 construct: host or cells: CHO
T1 sequence (Q12809 whole entry): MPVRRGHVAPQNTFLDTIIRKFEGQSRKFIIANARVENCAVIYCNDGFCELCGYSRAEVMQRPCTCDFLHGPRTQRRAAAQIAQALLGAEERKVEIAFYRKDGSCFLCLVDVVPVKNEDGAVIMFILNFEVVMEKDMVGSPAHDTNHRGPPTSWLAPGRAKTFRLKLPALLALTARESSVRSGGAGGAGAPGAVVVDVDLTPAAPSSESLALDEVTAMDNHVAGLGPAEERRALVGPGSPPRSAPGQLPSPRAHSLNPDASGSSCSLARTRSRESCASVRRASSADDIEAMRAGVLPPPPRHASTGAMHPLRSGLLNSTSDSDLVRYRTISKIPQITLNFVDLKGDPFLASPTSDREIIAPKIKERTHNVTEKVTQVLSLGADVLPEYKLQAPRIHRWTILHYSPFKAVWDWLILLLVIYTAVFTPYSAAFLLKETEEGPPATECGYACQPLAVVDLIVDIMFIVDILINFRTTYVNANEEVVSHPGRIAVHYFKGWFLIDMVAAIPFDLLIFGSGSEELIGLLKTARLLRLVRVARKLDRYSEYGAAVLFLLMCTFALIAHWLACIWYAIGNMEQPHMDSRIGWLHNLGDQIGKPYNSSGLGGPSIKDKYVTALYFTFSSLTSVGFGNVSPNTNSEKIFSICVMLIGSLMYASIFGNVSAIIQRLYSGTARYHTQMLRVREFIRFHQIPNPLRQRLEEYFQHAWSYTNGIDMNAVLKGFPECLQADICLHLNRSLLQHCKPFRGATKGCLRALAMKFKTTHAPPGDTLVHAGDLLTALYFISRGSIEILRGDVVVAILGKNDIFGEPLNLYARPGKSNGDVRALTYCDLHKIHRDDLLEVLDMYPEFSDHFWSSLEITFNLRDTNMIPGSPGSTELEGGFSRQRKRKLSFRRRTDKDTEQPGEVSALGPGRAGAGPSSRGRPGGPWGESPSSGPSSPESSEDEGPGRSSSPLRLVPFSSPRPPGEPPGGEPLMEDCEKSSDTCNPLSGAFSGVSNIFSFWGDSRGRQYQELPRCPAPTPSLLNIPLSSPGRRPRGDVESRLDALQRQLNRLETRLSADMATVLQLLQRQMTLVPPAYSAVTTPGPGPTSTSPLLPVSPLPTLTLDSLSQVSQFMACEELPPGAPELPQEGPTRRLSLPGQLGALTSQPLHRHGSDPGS
Procedure: A Sixty-Third Embodiment: hERG Potassium Channel Inhibition Activity Experiment
The cells used in this assay were CHO cell lines transfected with hERG cDNA and stably expressing the hERG channel (supplied by Sophion Bioscience, Denmark). The cells were cultured in medium containing the following components (all from Invitrogen): Ham's F12 medium, 10% (v/v) inactivated fetal bovine serum, 100 μg/ml hygromycin B, and 100 μg/ml Geneticin. 2.1.2CHO hERG cells were grown in a Petri dish containing the above culture solution, and cultured in an incubator containing 5% of CO2 at 37° C. 24 to 48 hours prior to electrophysiological experiments, CHO hERG cells were transferred to circular glass slides placed in petri dishes and grown under the same culture and culture conditions as above. The density of CHO hERG cells on each circular slide requires that most cells achieve independent, individual requirements.
2. Compound Treatment and Dilution
To obtain the IC50 of the compound, we selecte the following concentrations (30, 10, 3, 1, 0.3, and 0.1 μM) for testing. Prior to testing, the […] were first diluted to 10, 3, 1, 0.3, and 0.1 mM stock solution in gradual dilution with DMSO and then diluted to the final μM test concentration with extracellular fluid. The final concentration of DMSO in each of the other compound solutions was 0.1% except that the DMSO concentration in the 30 μM compound test solution was 0.3%. The positive control Cisapride (cishabili) was tested at a concentration of 0.1 μM. All compound solutions were sonicated and shaken for 5 to 10 minutes to ensure complete dissolution of the compound.
3. Electrophysiological Recording System and Data Analysis
This experiment uses a manual patch clamp system (HEKA EPC-10 signal amplifier and digital conversion system, purchased from HEKA Electronics, Germany) for the recording of whole cell currents. Round slide with CHO hERG cells on the surface was placed in an electrophysiology recording cell under an inverted microscope. The extracellular fluid was continuously perfused in the recording tank (about 1 ml per minute). The experimental procedure uses conventional whole-cell patch clamp current recording techniques. Unless otherwise stated, the experiments were carried out at regular room temperature (˜25° C.). The cells were clamped at a voltage of −80 mV. The cell clamp voltage was depolarized to +20 mV to activate the hERG potassium channel, and after 5 seconds it was clamped to −50 mV to eliminate inactivation and generate tail current. The tail current peak was used as the value of the hERG current magnitude. After the hERG potassium current recorded in the above step was stabilized under the continuous extracellular fluid perfusion in the recording tank, the drug to be tested can be superimposed and filled until the inhibitory effect of the drug on the hERG current reaches a steady state. Generally, the recent three consecutive current recording lines were recombined as a criterion for judging whether or not the state is stable. After reaching a steady state, extracellular fluid perfusion rinse until hERG current returns to the size before adding drug. One cell can test one or more drugs, or multiple concentrations of the same drug, but need to be flushed with extracellular fluid between different drugs. Cisapride (cisapride, purchased from Sigma) was used in the experiment as a positive control to ensure that the cells used were of normal quality. The test data was analysed by HEKA Patchmaster, Microsoft Excel and data analysis software provided by Graphpad Prism.

AKT1/PKBα = molecular target: T2, AKT1/PKBα (Homo sapiens, UniProt P31749); test: Akt1 enzyme inhibitory activity, AKT1/PKBα KinEASE FP Fluorescein Green Assay; type: biochemical; conditions: fluorescence polarization kit assay; read-out: Akt1 IC50 (grade)
T2 construct: purchased
T2 sequence (P31749 whole entry): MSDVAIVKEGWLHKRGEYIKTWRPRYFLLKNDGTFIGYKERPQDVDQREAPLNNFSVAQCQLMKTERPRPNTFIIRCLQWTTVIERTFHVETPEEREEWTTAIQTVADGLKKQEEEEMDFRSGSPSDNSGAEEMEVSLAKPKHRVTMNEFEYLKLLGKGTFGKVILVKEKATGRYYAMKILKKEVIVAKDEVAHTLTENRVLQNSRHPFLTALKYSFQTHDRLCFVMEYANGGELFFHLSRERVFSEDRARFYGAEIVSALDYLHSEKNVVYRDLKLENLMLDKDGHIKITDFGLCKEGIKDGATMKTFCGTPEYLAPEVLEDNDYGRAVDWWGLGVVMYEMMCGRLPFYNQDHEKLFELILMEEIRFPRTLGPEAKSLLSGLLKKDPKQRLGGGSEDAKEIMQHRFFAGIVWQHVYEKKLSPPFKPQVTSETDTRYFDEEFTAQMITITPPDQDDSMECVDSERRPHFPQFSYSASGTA
Procedure: (§1) Compound AZD5363 (NCT02208375, NCT02208375, NCT01625286), which have entered the clinical phase II study, was used as a positive control, and the compound was assayed against common tumour cell lines (human ovarian cancer cell line OVCAR-8 and human colon cancer cell line HCT-116) by MTT assay, at the same time, the akt1 enzyme inhibitory activity (IC50) was evaluated using a commercial Akt1 kit.
2) Test method for the inhibitory activity of the compound of the present invention against Akt1 enzyme:
The AKT1/PKBα KinEASE™ FP Fluorescein Green Assay (Kinase Green Fluorescence Detection System) was used to detect the inhibitory activity of the compound on AKT1/PKBα.
Fluorescence polarization detection protein kinase B employs the principle of a competitive reaction: a fluorescently labeled phosphorylated tracer and an unlabeled phosphorylated product produced by the reaction of protein kinase B will compete with the anti-serine antibody for binding. In a reaction mixture […], when a part of the fluorescent tracer binds to the antibody, it causes a higher polarization value. However, in the reaction solution mixture containing the phosphorylated product, less tracer binds to the antibody (the fluorescent tracer was replaced from the antibody) and the emitted signal was depolarized. Therefore, the change in polarization was directly related to the activity of protein kinase B in the reaction.
The compound of the present invention and the positive control AZD5363 were dissolved in dimethyl sulfoxide (DMSO) and diluted to a concentration of 50 μM. At room temperature, 0.25 μl of the compound sample and the positive control at a concentration of 50 μM were taken and added to the 384-well plate, and three parallel wells were set for each sample, and then 10 μl of STK Substrate 3, Working Solution, 5 μl AKT1/PKBα Working Solution, 10 μl ATP Working Solution were added to each sample well plate with vibrating gently and shaking for a few minutes. The reaction starts after 10 μl of ATP Working Solution was added to the well, and the reaction was timed at room temperature for 1 hour. After one hour, 5 μl of STK Stop Mix and 5 μl of STK Antibody Mix were added to each well respectively to stop the reaction. After the addition completes, it was allowed to stand at room temperature for four hours, and the polarization value of the sample was detected by the fluorescence polarization of the microplate reader (it was effective to detect its signal within 24 hours), and the inhibition rate of the compound was calculated by the polarization value, and then IC50 was calculated.
Four sets of controls were set in the experiment, namely Buffer Control Wells, Tracer Control Wells, No Enzyme Wells, and a blank dimethyl sulfoxide control. The resulting data was used to calculate the inhibition rate.
The activity of the compound was divided into three grades according to the size of the IC50 of the Akt inhibitory activity: “+++”, 1 nM<IC50<10 nM; “++”, 10 nM<IC50<50 nM; “+”, 50 nM<IC50.

HGC27 = test: Tumour cell proliferation inhibition, MTT assay, HGC27; type: cell-based, human
HCT-116 = test: Tumour cell proliferation inhibition, MTT assay, HCT-116; type: cell-based, human
Procedure: as §1
1) The pharmacological test method for the tumour cell proliferation inhibiting activity of the compound of the present invention was as follows:
The first was the determination of in vitro tumour growth inhibitory activity and the preliminary structure-activity relationship study, and different solid tumour cell lines were used to determine the in vitro antitumour activity of the synthesized compounds.
Experimental materials: cell lines: human ovarian cancer cells (OVCAR8), colon adenocarcinoma cells (HCT-116),
Medium: OVCAR8: RPMI 1640+fetal calf serum
Drug preparation method: dissolving the drug in DMSO to make a 50 mM of stock solution, and diluting it to a certain ratio to obtain 5 different concentrations.
Tumour Cells being Cultured In Vitro:
The selected tumour cells were incubated in a, 5% of CO2 cell incubator at 37° C., and passaged until the cell density was 70 to 90% (the adherent cells were passaged with Duck's EDTA) and used for subsequent experiments.
The compound was dissolved in dimethyl sulfoxide (DMSO), diluted, and tumour cells were seeded into 4000 cells/200 μL/well in 96-well plates, and 1 μL of compound was added to each well to a final concentration of 50 μM, 10 μM, 2 μM, and 0.4 μM. 0.08 μM were incubated in a, 5% of CO2 cell incubator at 37° C. for 72 hours with DMSO (1%) as a blank control.
The calculation formula of the cell inhibition rate is: cell inhibition rate %=(control group OD value−drug group OD value)/control cell OD value×100%, and the half inhibition concentration (IC50) was determined by the Bliss method.

CEM-C1 = test: Tumour cell proliferation inhibition, MTT assay, CEM-C1; type: cell-based, human
786-O = test: Tumour cell proliferation inhibition, MTT assay, 786-O; type: cell-based, human
MCF-7 = test: Tumour cell proliferation inhibition, MTT assay, MCF-7; type: cell-based, human

SMILES | hERG (Inhibition rate at 3 μM concentration) (hERG potassium channel) [%] | IC50 (AKT1/PKBα) [nM] | IC50 (HGC27; Homo sapiens, HGC-27, 72 h) [nM] | IC50 (HCT-116; Homo sapiens, HCT-116, 72 h) [nM] | IC50 (CEM-C1; Homo sapiens, CEM/C1, 72 h) [nM] | IC50 (786-O; Homo sapiens, 786-0, 72 h) [nM] | IC50 (MCF-7; Homo sapiens, MCF7, 72 h) [nM] | other results
Cn1ncc(Cl)c1-c1cc(C(=O)N[C@H]2CNCC[C@@H]2c2ccc(F)c(F)c2)oc1Cl (racemic) [reference compound] | 62 | – | – | – | – | – | – | –
Cn1nccc1-c1ccc(C(=O)N[C@@H]2CNCC[C@H]2c2cc(F)c(F)c(F)c2)c(F)c1 [VII-8] | 11.8 | 1 to 10 | 20 | 1520 | 120 | 1650 | 1850 | –
Cn1nccc1-c1cc(F)c(C(=O)N[C@@H]2CNCC[C@H]2c2ccc(F)c(F)c2)cc1F [VII-18] | 17.6 | 1 to 10 | 30 | 990 | 20 | 550 | 1180 | –
Cn1nccc1-c1ccc(C(=O)N[C@@H]2CNCC[C@H]2c2ccc(F)c(F)c2)c(F)c1 [VII-31, D-malate] | – | 1 to 10 | – | – | – | – | – | IC50 (HGC27; 72 hours, D-malate): 10 nM; IC50 (HCT-116; 72 hours, D-malate): 1520 nM; IC50 (CEM-C1; 72 hours, D-malate): 100 nM; IC50 (786-O; 72 hours, D-malate): 650 nM; IC50 (MCF-7; 72 hours, D-malate): 2960 nM
Cn1nccc1-c1ccc(C(=O)N[C@@H]2CNCC[C@H]2c2ccc(F)c(F)c2)c(F)c1.O=C(O)C(O)C(O)C(=O)O [VII-33, L-tartrate] | – | 1 to 10 | – | – | – | – | – | IC50 (HGC27; 72 hours, L-tartrate): 40 nM; IC50 (HCT-116; 72 hours, L-tartrate): 3100 nM; IC50 (CEM-C1; 72 hours, L-tartrate): 90 nM; IC50 (786-O; 72 hours, L-tartrate): 820 nM; IC50 (MCF-7; 72 hours, L-tartrate): 2250 nM
